US10329304B2, “Compounds and methods for inhibition of hedgehog signaling and phosphodiesterase” (Vanderbilt University, priority 2014, dated 2019)
Read-outs that look alike come from different tables or passages of the source.

Legend:
[1] = test system: Hedgehog signaling (Gli-Luc reporter); experiment: Hh Gli-Luciferase reporter assay in Shh-Light2 cells; type: cell-based, mouse; conditions: for EC50: Mus musculus, Shh Light2
Description: For Hh signaling assays, Shh-Light2 cells stably transfected with Gli-Luciferase reporter construct were used along with Shh-conditioned media, as previously described^7. Alternatively, 3 μM purmorphamine or 20 nM Smoothened agonist (SAG) (Santa Cruz Biotechnology, Santa Cruz, Calif.) was used to induce Hh signaling. Reporter cells were seeded in 96-well plates and incubated overnight with the various concentrations of eggmanone and Shh-conditioned media. To assess the effects of overexpression of Gli-2, PDE4D3 and DN-PDE4D3 on Hh signaling, mammalian expression vectors containing these constructs were transfected into Shh-Light2 cells in 96-well plates using Fugene6 (Roche), according to manufacturer's instructions. The transfected or Shh-stimulated cells were incubated overnight with the various concentrations of compound. The cells were then lysed, and cell extracts were subjected to Steady-Glo luciferase assay (Promega) according to manufacturer's instructions. The results were normalized to cell titer, as determined using Cell Titer-Glo luminescence assay (Promega).

PDE4D = PDE4D (Homo sapiens, UniProt Q08499); experiment: PDE4 inhibition assay (PDE4D IC50); type: biochemical; conditions: Table 8; read-out: PDE4 Inhibition Assay (IC50)
Description: (§1) In vitro PDE profiling and dose-response assays were performed by BPS Biosciences (San Diego, Calif.). Kinetic Mechanism of inhibition studies were conducted by Millipore (St. Louis, Mo.). In brief, the PDE assay measures fluorescent polarization of FAM-AMP as FAM-cAMP is converted to FAM-AMP by PDE), the binding agent.
(§2) A series of dilutions of the test compound were prepared with 10% DMSO in assay buffer and 5 μl of the dilution was added to a 50 μl reaction so that the final concentration of DMSO is 1% in all of reactions. All of the PDE enzymatic reactions were conducted in duplicate at room temperature for 60 minutes in a 50 μl mixture containing PDE assay buffer (10 mM Tris-HCl, pH7.4, 10 mM MaCl2, 0.05% Tween 20), 100 nM FAM-cAMP, a PDE enzyme and a test compound.
After the enzymatic reaction, 100 μl of a binding solution (1:100 dilution of the binding agent, which contains the nano beads that recognize FAM-AMP, with the binding agent diluent) was added to each reaction and the reaction was performed at room temperature for 60 minutes. Fluorescence intensity was measured at an excitation of 485 nm and an emission of 528 nm using a Tecan Infinite M1000 microplate reader. Assays done by Millipore were conducted similarly with changes noted below:
Hedgehog signaling inhibition and PDE4 inhibition of various compounds disclosed herein was assayed as described herein above.

PDE4D3 = target: T1, PDE4D3 (Homo sapiens, UniProt Q08499); experiment: In vitro PDE assay; type: biochemical
T1 construct: purchased BPS Biosciences (San Diego, Calif.); kinetic studies by Millipore (St. Louis, Mo.)
Description: as §1, §2
After the enzymatic reaction, 100 μl of a binding solution (1:100 dilution of the binding agent, which contains the nano beads that recognize FAM-AMP, with the binding agent diluent) was added to each reaction and the reaction was performed at room temperature for 60 minutes. Fluorescence intensity was measured at an excitation of 485 nm and an emission of 528 nm using a Tecan Infinite M1000 microplate reader. Assays done by Millipore were conducted similarly with changes noted below: […]

Gli1 mRNA = experiment: Hh % Inh.: SAG-induced Gli1 expression in C3H10T½ cells (qPCR); type: cell-based; conditions: Mus musculus, C3H 10T1/2, SAG-induced (100 nM), 24 hours; for inhibition at 1 µM: 1 pM [sic], read-out: C3H10T1/2 qPCR, Gh1 mRNA % Inh., 1 pM; for inhibition at 10 µM: 10 pM [sic], read-out: C3H10T1/2 qPCR, Gh1 mRNA % Inh., 10 pM
Description: Compounds are dosed from 10 mM DMSO stock solutions, and mRNA is isolated after 24 hours of compound treatment. mRNA is reverse transcribed to produce cDNA which is quantified by quantitative polymerase chain reaction (qPCR) in triplicate and levels are normalized to GAPDH levels. Data is presented as percent inhibition compared to positive control (SAG).

[2] = test system: Hedgehog signaling (TM3-Gli-Luc); experiment: TM3-Gli-Luc luciferase reporter assay stimulated with 20 nM SAG; type: cell-based; conditions: Table 9A; read-out: TM3 G8 Luciferase EC 50
Description: TM3-Gli-Luc cells were maintained on sterile 0.1% gelatin (from porcine skin, Type A, prepared in MilliQ water, autoclaved, then sterile-filtered) in 1:1 Dulbecco's Modified Eagle Medium (DMEM)/F12 supplemented with 5% horse serum, 2.5% fetal bovine serum (FBS), and 15 mM HEPES, hereafter referred to as TM3 Culture Medium. For small molecule evaluation, TM3-Gli-Luc cells were assayed on 0.1% gelatin in DMEM/F12 supplemented with 2.5% FBS and 15 mM HEPES, hereafter referred to as TM3Luc Medium. Sufu^−/− cells were maintained in DMEM supplemented with 4.5 g/L D-glucose, L-glutamine, 25 mM HEPES, and 10% FBS, hereafter referred to as D10 FBS. For small molecule evaluation, Sufu^−/− cells were assayed in DMEM supplemented with 4.5 g/L D-glucose, L-glutamine, 25 mM HEPES, and 0.5% FBS, hereafter referred to as D0.5 FBS. All cells were cultured at 37° C. with a 5% CO2 atmosphere.
On the day of cell plating, 96-well plates were coated with 50 μL/well of sterile 0.1% gelatin for 5 minutes then aspirated and replaced with 50 μL/well of TM3 Culture Medium. TM3-Gli-Luc cells were seeded at a density of 5,000 cells/well in TM3 Culture Medium and incubated for 24 hours. A master mix of 20 nM SAG in TM3Luc Medium was prepared, and small molecule solutions were prepared by adding the desired amount of compound from 10 mM DMSO stock to TM3Luc Medium containing 20 nM SAG. Negative control was prepared by adding an equi-volume amount of DMSO as compared to small molecule treated conditions to TM3Luc Medium not containing SAG. Cell plating medium was aspirated and replaced with 100 μL/well of prepared small molecule-containing media, and plates were incubated for 48 hours before proceeding to luciferase activity and cell viability reading.
TM3Luc Medium from compound treated plates was aspirated and replaced with 82 μL/well of Glo Lysis Buffer (Promega, Madison, Wis., USA), and plates were shaken at 300 rpm and room temperature for 12 minutes. Lysate was split between two white 96-well plates, 45 μL/well and 25 μL/well for luciferase reading and cell viability respectively. For luciferase activity monitoring, 45 μL/well of Steady Glo (Promega, Madison, Wis., USA) was added to 45 μL/well of cell lysate, incubated at room temperature for 5 minutes, then luminescence was measured on a Turner Biosystems Modulus Microplate Reader (Sunnyvale, Calif., USA) with an integration time of 0.5 seconds. For cell viability measurement, 25 μL/well of Cell Titer Glo (Promega, Madison, Wis., USA) (prepared by 1:10 dilution with Glo Lysis Buffer) was added to 25 μL/well of cell lysate, incubated at room temperature for 5 minutes, then luminescence was measured as above.
Luciferase activity data (Steady Glo) was divided by corresponding cell viability data (Cell Titer Glo) to arrive at a live cell number-normalized luciferase activity reading. The average of negative control data (DMSO treated) was subtracted from all wells, and percent activity was calculated by dividing all wells by the positive control (SAG treated) average. […] At least two independent assays tested on separate days were averaged to provide EC50±standard error of the mean.

zebrafish embryos = experiment: Zebrafish embryo phenotypic assay (ZF); type: in vivo; conditions: wild-type embryonic zebrafish, dosed 5 hpf
Description: All zebrafish experiments were approved by Vanderbilt University Institutional Animal Care and Use Committee. Wild-type zebrafish of AB strain were maintained using standard protocols. Chemical screen for small molecules was performed as previously described. Briefly, pairs of zebrafish were mated, and fertilized eggs were arrayed in 96-well microtiter plates (5 embryos/well) containing 250 μl E3 water. At ˜4-hpf, small molecule library from Vanderbilt High Throughput Screening Facility was added to each well to the final concentration of 5 μM. Embryos were incubated at 28.5° C. until 24 and 48-hpf, when they were examined for gross morphologic changes indicative of disruption in embryonic patterning. A total of ˜30,000 compounds were screened.
ZF refers to wild-type embryonic zebrafish phenotypic assay involving dosing n=˜10 embryos in E3 egg water with compound from either a stock of 1 mM or 10 mM in DMSO at 5 hours post-fertilization and observing at 24, 48, and 72 hours post-fertilization.

[3] = Table 8, read-out: Hh Inhibition Assay (EC50)
[4] = Table 9B, read-out: Shh Light2 Luc EC50

Sequence of PDE4D (Q08499 1-673 isoform Q08499-2): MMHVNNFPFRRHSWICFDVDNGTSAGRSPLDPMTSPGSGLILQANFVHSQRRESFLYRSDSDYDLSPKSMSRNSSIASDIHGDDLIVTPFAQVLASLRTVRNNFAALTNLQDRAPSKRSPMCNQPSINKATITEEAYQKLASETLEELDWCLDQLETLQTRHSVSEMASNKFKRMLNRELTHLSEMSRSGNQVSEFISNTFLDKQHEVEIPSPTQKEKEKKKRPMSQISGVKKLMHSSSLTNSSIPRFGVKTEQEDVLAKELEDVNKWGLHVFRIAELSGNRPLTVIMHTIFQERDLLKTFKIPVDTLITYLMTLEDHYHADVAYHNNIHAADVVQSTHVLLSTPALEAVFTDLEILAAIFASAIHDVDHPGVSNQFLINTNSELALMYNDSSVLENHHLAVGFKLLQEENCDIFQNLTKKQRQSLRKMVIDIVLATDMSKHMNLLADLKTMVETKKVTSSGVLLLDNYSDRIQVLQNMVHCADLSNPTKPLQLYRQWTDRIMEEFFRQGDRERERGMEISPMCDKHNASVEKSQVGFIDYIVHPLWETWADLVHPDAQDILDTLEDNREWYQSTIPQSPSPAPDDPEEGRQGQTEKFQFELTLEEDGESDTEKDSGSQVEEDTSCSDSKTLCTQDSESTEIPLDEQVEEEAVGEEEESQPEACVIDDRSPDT
T1 sequence (Q08499 1-673 isoform Q08499-2): as above

SMILES	EC50 [1, 3]	IC50 (PDE4D)	further results
C=C(C)Cn1c(SCC(=O)c2cccs2)nc2sc3c(c2c1=O)CCCC3 [Formula (1), 3-(2-methylallyl)-2-((2-oxo-2-(thiophen-2-yl)ethyl)thio)-5,6,7,8-tetrahydrobenzo[4,5]thieno[2,3-d]pyrimidine-4(3H)-one]	1.5 µM	0.893 µM	–
C=CCn1c(SCC(=O)c2cccs2)nc2sc3c(c2c1=O)CCCC3 [Formula (2)]	–	> 100 µM	Hh Inhibition Assay (EC50, μM) ([1]; Table 8): Inactive
C=C(C)Cn1c(SCC(=O)c2ccccc2)nc2sc3c(c2c1=O)CCCC3 [Formula (3)]	3 µM	1.27 µM	–
C=C(C)Cn1c(SCC(=O)N2CCCC[C@H]2C)nc2sc3c(c2c1=O)CCCC3 [Formula (5)]	2.5 µM	1.2 µM	–
C=CCn1c(SCC(=O)N2CCCC[C@H]2C)nc2sc3c(c2c1=O)CCCC3 [Formula (6)]	5 µM	7.6 µM	–
C=C(C)Cn1c(SCC(=O)N2CCN(C)CC2)nc2sc3c(c2c1=O)CCCC3 [Formula (7)]	20 µM	8.5 µM	–
C=CCn1c(SCC(=O)N2CCN(C)CC2)nc2sc3c(c2c1=O)CCCC3 [Formula (8)]	10 µM	2.08 µM	–
C=C(C)Cn1c(SCC(=O)c2nccs2)nc2sc3c(c2c1=O)CCCC3 [Formula (9)]	7.5 µM	6.4 µM	–
C=CCn1c(SCC(=O)c2nccs2)nc2sc3c(c2c1=O)CCCC3 [Formula (10)]	–	27 µM	Hh Inhibition Assay (EC50, μM) ([1]; Table 8): Inactive
C=C(C)Cn1c(SCC(=O)c2ccncc2)nc2sc3c(c2c1=O)CCCC3 [Formula (11)]	10 µM	16 µM	–
CCn1c(SCC(=O)c2ccc(Cl)cc2)nc2sc3c(c2c1=O)CCC3 [HI113]	–	–	EC50 [1, 4]: > 20 µM; IC50 (PDE4D3; Table 9B): 4.1 µM
C=CCn1c(SCC(=O)c2ccc(OC)cc2)nc2sc3c(c2c1=O)CCCC3 [HI798]	–	–	EC50 [1, 4]: > 10 µM; IC50 (PDE4D3; Table 9B): > 100 µM
O=C(CSc1nc2sc3c(c2c(=O)n1CC1CC1)CCCC3)c1cccs1 [JEH-3-039-1]	–	–	IC50 (PDE4D3; Table 9A): 1 µM; inhibition at 1 µM (Gli1 mRNA): -3.3%; inhibition at 10 µM (Gli1 mRNA): 81.6%; EC50 [2]: 2.96 µM
C=C(C)Cn1c(SCC(=O)c2cccs2)nc2sc3ccccc3c2c1=O [JEH-4-006]	–	–	IC50 (PDE4D3; Table 9A): > 100 µM; inhibition at 1 µM (Gli1 mRNA): 14.3%; inhibition at 10 µM (Gli1 mRNA): 79.3%; EC50 (Gli1 mRNA; read-out: C3H10T1/2 qPCR, Gh1 mRNA EC50): 4.3 µM; EC50 [2]: > 50 µM
O=C(CSc1nc2sc3c(c2c(=O)n1C1CC1)CCN(C(=O)c1ccco1)C3)c1ccccc1 [KYK-1-75]	–	–	ZF Phenotype EC100 (zebrafish embryos): >50 µM; IC50 (PDE4D3; Table 9A): 6.4 µM; EC50 [2]: 3.59 µM

Now from value to compound, other results behind:

EC50 [1, 3]	IC50 (PDE4D)	SMILES	further results
15 µM	8.2 µM	C=CCn1c(SCC(=O)c2ccncc2)nc2sc3c(c2c1=O)CCCC3 [Formula (12)]	–
5 to 20 µM	3.9 µM	C=C(C)Cn1c(SCC(=O)N2CCOCC2)nc2sc3c(c2c1=O)CCCC3 [Formula (13)]	–
–	> 100 µM	C=CCn1c(SCC(=O)N2CCOCC2)nc2sc3c(c2c1=O)CCCC3 [Formula (14)]	Hh Inhibition Assay (EC50, μM) ([1]; Table 8): Inactive
15 µM	23 µM	C=C(C)Cn1c(SCC(=O)c2ccccn2)nc2sc3c(c2c1=O)CCCC3 [Formula (15)]	–
20 µM	25 µM	C=CCn1c(SCC(=O)c2ccccn2)nc2sc3c(c2c1=O)CCCC3 [Formula (16)]	–
–	46 µM	C=C(C)Cn1c(SCC(=O)N2Cc3ccccc3C2)nc2sc3c(c2c1=O)CCCC3 [Formula (17)]	Hh Inhibition Assay (EC50, μM) ([1]; Table 8): Inactive
–	> 100 µM	C=CCn1c(SCC(=O)N2Cc3ccccc3C2)nc2sc3c(c2c1=O)CCCC3 [Formula (18)]	Hh Inhibition Assay (EC50, μM) ([1]; Table 8): Inactive
